Experimental data published in publication PMC8424300, “Identification of novel microtubule inhibitors effective in fission yeast and human cells and their effects on breast cancer cell lines” (Open Biology, 2021).

Columns and labels:
MDR-sup fission yeast = assay: Phenotypic assay of microtubule organization in MDR-sup strain expressing GFP-atb2; format: cell-based, Schizosaccharomyces pombe; conditions: 5 µM compound for 3 h, living cells
Method: We have previously screened a collection of 10 371 small molecules to identify compounds that inhibit the growth of a multiple-drug-sensitive fission yeast strain (MDR-sup). We selected 248 compounds (2.4% of the total) that inhibited fission yeast cell growth rate by at least 50% (figure 1a) and subsequently conducted a phenotypic screen of these to identify drugs that affect microtubule organization (figure 1b). After the MDR-sup cells were treated with 5 µM of each compound for 3 h, microtubules were monitored using GFP tagged α-tubulin Atb2 and live-cell fluorescence microscopy. In untreated interphase cells, microtubules form long cytoplasmic arrays that run parallel to the long cellular axis, and in mitotic cells, microtubules form a bipolar spindle in the nucleus and the cytoplasmic microtubules disappear (figure 1c(i), arrow). […] This screen identified 34 compounds that induced cytological phenotypes indicative of defects in microtubule organization or function.
Figure 1. Phenotypic screening in MDR-sup fission yeast (a). Growth assay screening using MDR-sup strain. The optical density was measured with 20 µM of each compound and 248 compounds that gave at least 50% growth inhibition were used for further phenotyping marked by the red lines. Growth was normalized to DMSO-treated cells. (b) Schematic representation of the screening workflow. (c) Examples of the phenotypic assay using L1, P2 and B8 in the MDR-sup strain expressing GFP-atb2 (tubulin) are shown. Cells were incubated in 5 µM compound for 3 h and atb2 signals were detected in living cells. (i) Cells in absence of any compound. In interphase cells, α-tubulin Atb2 protein was detected in the nucleus and interphase microtubules, while mitotic spindles were detected in mitotic cells (arrows). (ii) In the presence of L1, microtubules were depolymerized and tubulin signals were detected distributed throughout the nucleus. (iii) In the presence of P2, short spindles were detected but anaphase spindles were not. (iv) In the presence of B8, interphase microtubules were not detected, while, dots were detected. […]

[1] = biological target: T1, tubulin (colchicine-binding site) (Sus scrofa, UniProt P02550+P02554); assay: Fluorescence-based colchicine displacement assay; conditions: for fluorescence of the colchicine-tubulin complex: 2 µM tubulin + 2 µM colchicine set 100%
T1 construct: purchased Cytoskeleton, Inc
T1 sequence (P02554 whole entry): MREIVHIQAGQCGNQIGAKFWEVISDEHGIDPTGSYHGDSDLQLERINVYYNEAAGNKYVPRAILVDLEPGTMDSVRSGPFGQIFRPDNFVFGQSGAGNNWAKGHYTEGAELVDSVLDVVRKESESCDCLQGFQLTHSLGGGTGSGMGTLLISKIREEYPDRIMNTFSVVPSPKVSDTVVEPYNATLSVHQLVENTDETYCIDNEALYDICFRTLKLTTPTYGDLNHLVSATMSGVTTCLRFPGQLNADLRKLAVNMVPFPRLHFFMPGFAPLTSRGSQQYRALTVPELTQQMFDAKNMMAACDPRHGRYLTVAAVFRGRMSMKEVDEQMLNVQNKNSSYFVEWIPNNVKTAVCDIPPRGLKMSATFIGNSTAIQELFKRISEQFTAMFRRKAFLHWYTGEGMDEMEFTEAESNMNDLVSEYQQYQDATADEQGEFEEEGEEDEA
T1 sequence (P02550 whole entry): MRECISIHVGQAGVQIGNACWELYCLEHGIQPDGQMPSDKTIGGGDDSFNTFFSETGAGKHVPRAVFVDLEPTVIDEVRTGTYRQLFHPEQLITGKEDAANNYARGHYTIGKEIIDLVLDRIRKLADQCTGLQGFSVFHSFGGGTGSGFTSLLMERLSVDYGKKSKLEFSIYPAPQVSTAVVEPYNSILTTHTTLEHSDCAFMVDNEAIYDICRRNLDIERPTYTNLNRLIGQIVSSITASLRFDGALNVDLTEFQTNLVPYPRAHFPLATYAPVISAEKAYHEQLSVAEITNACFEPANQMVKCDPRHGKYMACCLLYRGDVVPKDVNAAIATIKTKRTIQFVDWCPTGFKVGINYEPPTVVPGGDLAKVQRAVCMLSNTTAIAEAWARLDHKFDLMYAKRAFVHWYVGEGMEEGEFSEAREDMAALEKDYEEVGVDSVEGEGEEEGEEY
Method: Figure 6. […] Each value represents the mean ± s.e.m. of three independent experiments.
Reaction mixtures were excited at 380 nm and the emission was measured at 438 nm. Values were exported as Excel files and graphs were generated in Prism V9 GraphPad.

[2] = tested on: BT549, CAL51 and MB-157 breast cancer cell lines; assay: Viability dose-response in breast cancer cell lines; format: cell-based; conditions: Homo sapiens, 96 h; range over three breast cancer cell lines; 4 days of treatment
Method: (§1) The sensitivity of the inhibitors L1, J3, A15 and M2 were evaluated in three breast cancer cell lines, (BT549, CAL51 and MB-157) and a non-cancer cell line from the human mammary gland, MCF-10A (figure 8). Drug sensitivity was determined by culturing breast cancer cell lines (black lines) and the non-cancer cell line (red line) with a range of concentrations of each compound, and viability was measured after 4 days of treatment in triplicate.
(§2) Figure 8. Dose–response curves in three cancer cell lines (BT549, CAL51 and MB-157) are shown in black and non-cancer cell line; MCF-10A is shown in red. They were subjected to a dose–response matrix of the tubulin inhibitor, L1, A15, M2 and J3, respectively. Viability relative to the vehicle control was measured […] after treatment. Mean ± s.e.m. for n = 3 experiments is shown.
(§3) Cells were plated in 384-well plates at a density of 800 cells per well in 22.5 µl of media. After 24 h, 2.5 µl drug was diluted in media and was added to each well. Following 5 days of incubation, viability was assessed using CellTiter-Glo (Promega) according to the manufacture's protocol. Luminescence in each well was measured using a Synergy Neo2 plate reader (BioTek).

MCF-10A = assay: Viability dose-response in non-cancer mammary cell line; format: cell-based, human
Method: as §1, §2, §3

[3] = tested on: fission yeast mutant strains (nda2-KM52, nda3-KM311, cdc25-22, cut14-208, act1-48); assay: Drug sensitivity of fission yeast mutants spotted on YE medium; format: cell-based, Schizosaccharomyces pombe; conditions: figure S3
Method: The Schizosaccharomyces pombe SAK933 strain (h90 ade6 leu1 ura4-D18 GFP-atb2≪kanr sid4-mcherry≪hygr caf5::bsdR pap1Δ pmd1Δ mfs1Δ bfr1Δ dnf2 Δ erg5::ura4+) [57] used for the phenotypic screening in this study was grown at 30°C in yeast extract (YE) medium containing adenine, leucine, uridine and histidine. A haploid wild-type strain 972 h^- and its derivative strains were used in the electronic supplementary material, figure S3: nda2-km52, nda3-km311 [58], cdc25-22 [59, 60], cdc14-208 [61] and act1-48 [62] spotted onto YE medium containing the same four supplements above and incubated for 3 days at 30°C.

## COc1cc(Br)cc2c1OC(c1ccc3c(c1)OCO3)C([N+](=O)[O-])=C2 (centres unmarked) [L1]
MDR-sup fission yeast
  microtubule phenotype (GFP-atb2 tubulin signal): microtubules are undetectable, and α-tubulin accumulates in the nucleus
[1]; 5 µM L1
  fluorescence of the colchicine-tubulin complex: 87%
[1]; 10 µM L1
  fluorescence of the colchicine-tubulin complex: 71%
[1]; 50 µM L1
  colchicine-tubulin interaction: abolished the interaction between colchicine and tubulin complex completely
[2]
  IC50: 2.4 to 3.1 µM
MCF-10A; Homo sapiens, 96 h, MCF-10A, 4 days of treatment
  IC50: 9.6 µM
MCF-10A; ratio non-cancer / cancer lines
  IC50 in MCF-10A relative to the three breast cancer cell lines: more than threefold higher
[3]
  drug sensitivity of cdc25-22, cut14-208 and act1-48 mutants: No such drug hypersensitivity
